Values after ≈ are worked out from the molar mass of the structure shown. Marks after values point to notes of the source that are not given here.
How the values were obtained:
Type in all cases: physicochemical
[1] = Behavior under compression
Protocol: About 20 mg of I-1 Form A was compressed for 5 minutes at 2 MPa, 5 MPa and 10 MPa with a hydraulic press. XRPD characterization was performed to investigate the polymorphic behavior under compression.
About 20 mg of Form A was compressed for 5 minutes at 2 MPa, 5 MPa and 10 MPa with a hydraulic press. XRPD characterization was performed to investigate the polymorphic behavior under compression.

[2] = Grinding simulation experiments
Protocol: About 50 mg of I-1 Form A was ground manually with a mortar and pestle for 1, 3 and 5 min. Form transformation and degree of crystallinity was evaluated by XRPD.
About 50 mg of Form A was ground manually with a mortar and pestle for 1, 3 and 5 min. Form transformation and degree of crystallinity was evaluated by XRPD.

[3] = Stability of I-1 solution during concentration (pH, temperature; chiral purity); details: for ee % before concentration: starting value before stirring; for ee % of the product after stirring: from 98.20%
Protocol: To study the chiral stability of product I-1 during concentration, three batches I-1 from Prep-HPLC was tried under different conditions: 1) The ee % of the product changes from 98.20% to 78.95% after stirring over 18 h at 45-50° C. with pH 6-7. 2) The ee % of the product changes from 98.20% to 97.64% after stirring over 18 h at 20-25° C. with pH 6-7. 3) The ee % of the product changes from 98.20% to 98.15% after stirring over 18 h at 45-50° C. with pH 5-6.
Two reactions at 0.5 g I-1 (after SFC preparation) were carried out for stability study. 1) Compound is stable after stirring over 20 h at 10-20° C. with pH 4. 2) The ee % of this compound change from 98.43% to 98.16% after stirring over 20 h at 40-50° C. with pH 4.

[4] = Stability of III-1 & I-1 solid; details: after 55 days; initial 99.2%
[5] = Approximate solubility at 25° C. (visual observation)
Protocol: Max. volume of each solvent added was 1 mL. Approximate solubility was determined by visual observation.

[6] = Investigation of factors impacting racemization
Excerpt: Therefore, the factors impacting racemization were investigated including pH, temperature, molecular sieve and experimental duration. […] It is worth noted that racemization can be accelerated when solvents are pretreated by molecular sieve, since the pH value is shifted to basic after pretreatment.
During DSC test for I-1 Form A, different heating rates result in different thermal events. To investigate whether racemization occurs during heating, I-1 Form A was heated to different temperatures then obtained solids were tested by SFC.

[7] = Light impact on chiral purity
Protocol: Four reactions were carried out to study the impact of light on chiral purity under neutral and basic condition.

[8] = Stability of I-1 solution during concentration (pH, temperature; chiral purity); details: for Purity / ee %: 1N HCl; for ee %: start ee 98.43%
[9] = after heating to 260° C. at 2° C./min by DSC
[10] = after heating to 300° C. at 2° C./min by DSC
[11] = 10-20° C. MeOH, pH 4, stir for 4 h

Structure (SMILES): N#Cc1c(-c2cc(NC(=O)c3cc(F)cc(C(F)(F)F)c3)c3c(c2)C(=O)N[C@H]3c2cc(F)ccc2Cl)ccc2ncnn12 [Compound I-1, (R)-N-(3-(2-chloro-5-fluorophenyl)-6-(5-cyano-[1,2,4]triazolo[1,5-a]pyridin-6-yl)-1-oxoisoindolin-4-yl)-3-fluoro-5-(trifluoromethyl)benzamide]
- XRPD peaks after compression [1]: slightly broader
- form change under compression (XRPD) ([1]; 5 minutes at 2, 5 and 10 MPa): no form change
- XRPD ([1]; compressed for 5 minutes at 2 Mpa): No form change, but peaks became slightly broader
- XRPD ([1]; compressed for 5 minutes at 5 Mpa): No form change, but peaks became slightly broader
- XRPD ([1]; compressed for 5 minutes at 10 Mpa): No form change, but peaks became slightly broader
- XRPD peak intensity after dry grinding [2]: slightly decreased
- XRPD ([2]; Dry grinding for 1 min): No form and crystallinity change,
- form change on grinding (XRPD) ([2]; mortar and pestle 1, 3 and 5 min): no form change
- Purity ([3]; 10-20° C. MeOH, 1N HCl, pH 4, stir for 20 h): 99.54%
- ee % ([3]; 10-20° C. MeOH, 1N HCl, pH 4, stir for 20 h, start ee 98.43%): 98.39%
- Purity ([3]; 10-20° C. MeOH, 1N HCl, pH 4, stir for 68 h): 99.53%
- ee % ([3]; 10-20° C. MeOH, 1N HCl, pH 4, stir for 68 h, start ee 98.43%): 98.27%
- ee % ([3]; 20-25° C. MeOH, pH 6-7, stir for 18 h, start ee 98.20%): 97.64%
- Purity ([3]; 40-50° C. MeOH, 1N HCl, pH 4, stir for 4 h): 99.51%
- Purity ([3]; 40-50° C. MeOH, 1N HCl, pH 4, stir for 20 h): 99.37%
- ee % ([3]; 40-50° C. MeOH, 1N HCl, pH 4, stir for 20 h, start ee 98.43%): 98.16%
- ee % ([3]; 40-50° C. MeOH, 1N HCl, pH 4, stir for 68 h, start ee 98.43%): 97.92%
- purity and chiral purity change in solution ([3]; 40˜50° C. stirring for 68 h): slight degrade
- ee % ([3]; 45-50° C. MeOH, 1N HCl, pH 5-6, stir for 18 h, start ee 98.20%): 98.15%
- ee % ([3]; 45-50° C. MeOH, pH 6-7, stir for 18 h, start ee 98.20%): 78.95%
- ee % before concentration ([3]; I-1 after SFC preparation): ee % 98.43%
- ee % before concentration ([3]; I-1 from Prep-HPLC): ee % 98.20%
- stability of compound I-1 solution ([3]; dependence on pH): stable when pH at 4˜5
- ee % of the product after stirring ([3]; over 18 h at 20-25° C. with pH 6-7): 97.64%
- ee % of the product after stirring ([3]; over 18 h at 45-50° C. with pH 5-6): 98.15%
- ee % of the product after stirring ([3]; over 18 h at 45-50° C. with pH 6-7): 78.95%
- stability after stirring ([3]; over 20 h at 10-20° C. with pH 4): stable
- ee % after stirring ([3]; over 20 h at 40-50° C. with pH 4, from 98.43%): 98.16%
- purity of solid after storage [4]: 99.2%
- Solubility ([5]; 1,4-dioxane, organic solvent or mixture, thermodynamic from solid, 1,4-Dioxane, polymorph screening batch): 29 to 33 mg/mL (≈ 47.6 to 54.2 mM)
- Solubility ([5]; 2-MeTHF, organic solvent or mixture, thermodynamic from solid, polymorph screening batch): 5 to 6 mg/mL (≈ 8.21 to 9.85 mM)
- Solubility ([5]; acetone, organic solvent or mixture, thermodynamic from solid, polymorph screening batch): 43 to 52 mg/mL (≈ 70.6 to 85.4 mM)
- Solubility ([5]; acetone, organic solvent or mixture, thermodynamic from solid, starting material for salt screening): 12 to 17 mg/mL
- Solubility ([5]; acetonitrile, organic solvent or mixture, thermodynamic from solid, polymorph screening batch): 10 to 11 mg/mL (≈ 16.4 to 18.1 mM)
- Solubility ([5]; acetonitrile, organic solvent or mixture, thermodynamic from solid, starting material for salt screening): 10 to 17 mg/mL
- Solubility ([5]; anisole, organic solvent or mixture, thermodynamic from solid, polymorph screening batch): < 5 mg/mL
- Solubility ([5]; benzyl alcohol, organic solvent or mixture, thermodynamic from solid, polymorph screening batch): 16 to 18 mg/mL (≈ 26.3 to 29.6 mM)
- Solubility ([5]; chloroform, organic solvent or mixture, thermodynamic from solid, polymorph screening batch): < 5 mg/mL
- Solubility ([5]; dichloromethane, organic solvent or mixture, thermodynamic from solid, polymorph screening batch): < 5 mg/mL
- Solubility ([5]; dichloromethane, organic solvent or mixture, thermodynamic from solid, starting material for salt screening): < 5 mg/mL
- Solubility ([5]; ethanol, organic solvent or mixture, thermodynamic from solid, polymorph screening batch): 6 to 7 mg/mL (≈ 9.85 to 11.5 mM)
- Solubility ([5]; ethanol, organic solvent or mixture, thermodynamic from solid, starting material for salt screening): < 5 mg/mL
- Solubility ([5]; ethyl acetate, organic solvent or mixture, thermodynamic from solid, polymorph screening batch): 6 to 7 mg/mL (≈ 9.85 to 11.5 mM)
- Solubility ([5]; heptane, organic solvent or mixture, thermodynamic from solid, polymorph screening batch): < 5 mg/mL
- Solubility ([5]; isopropanol, organic solvent or mixture, thermodynamic from solid, polymorph screening batch): < 5 mg/mL
- Solubility ([5]; isopropanol, organic solvent or mixture, thermodynamic from solid, starting material for salt screening): < 5 mg/mL
- Solubility ([5]; isopropyl acetate, organic solvent or mixture, thermodynamic from solid, polymorph screening batch): < 5 mg/mL
- Solubility ([5]; isopropyl acetate, organic solvent or mixture, thermodynamic from solid, starting material for salt screening): < 5 mg/mL
- Solubility ([5]; methanol, organic solvent or mixture, thermodynamic from solid, polymorph screening batch): 15 to 17 mg/mL (≈ 24.6 to 27.9 mM)
- Solubility ([5]; methanol, organic solvent or mixture, thermodynamic from solid, starting material for salt screening): 12 to 17 mg/mL
- Solubility ([5]; methyl ethyl ketone, organic solvent or mixture, thermodynamic from solid, polymorph screening batch): 26 to 28 mg/mL (≈ 42.7 to 46 mM)
- Solubility ([5]; methyl ethyl ketone, organic solvent or mixture, thermodynamic from solid, starting material for salt screening): 12 to 17 mg/mL
- Solubility ([5]; nitromethane, organic solvent or mixture, thermodynamic from solid, Nitromethane (NM), polymorph screening batch): 7 to 8 mg/mL (≈ 11.5 to 13.1 mM)
- Solubility ([5]; t-butyl methyl ether, organic solvent or mixture, thermodynamic from solid, polymorph screening batch): < 5 mg/mL
- Solubility ([5]; tetrahydrofuran, organic solvent or mixture, thermodynamic from solid, polymorph screening batch): 52 to 65 mg/mL (≈ 85.4 to 107 mM)
- Solubility ([5]; tetrahydrofuran, organic solvent or mixture, thermodynamic from solid, starting material for salt screening): 33 to 64 mg/mL
- Solubility ([5]; toluene, organic solvent or mixture, thermodynamic from solid, polymorph screening batch): < 5 mg/mL
- Solubility ([5]; trifluoroethanol, organic solvent or mixture, thermodynamic from solid, starting material for salt screening): 12 to 17 mg/mL
- Solubility ([5]; water, thermodynamic from solid, polymorph screening batch): < 5 mg/mL
- Solubility ([5]; water, thermodynamic from solid, starting material for salt screening): < 5 mg/mL
- ee %(SFC) ([6]; Batch #1 as received, SFC after preparation for 12 h): ee % (SFC): 97.7%#;
- ee %(SFC) ([6]; Batch #1 as received, SFC immediately after preparation): ee % (SFC): 100.0%*
- XRPD [6, 9]: XRPD: low crystallinity
- ee %(SFC) [6, 9]: ee % (SFC): 88.1%*
- ee %(SFC) ([6]; after heating to 270° C. at 2° C./min by DSC): ee % (SFC): 10.9%*
- XRPD [6, 10]: XRPD: amorphous form
- ee %(SFC) [6, 10]: ee % (SFC): 2.2%*
- racemization during heating (DSC, solids tested by SFC) ([6]; certain high temperatures): racemization indeed occurred
- racemization in different solvents ([6]; sped up by basic pH, high temperature, longer time, exposure to light): racemization easily occurs
- ee % ([7]; Avoid light, basic (KOAc), 1 h): 97.91%
- ee % ([7]; Avoid light, basic (KOAc), 6 h): 94.79%
- ee % ([7]; Avoid light, basic (KOAc), 24 h): 80.92%
- ee % ([7]; Avoid light, basic (KOAc), 96 h): 43.30%
- ee % ([7]; Avoid light, neutral, 0 h): 98.96%
- ee % ([7]; Avoid light, neutral, 6 h): 98.94%
- ee % ([7]; Avoid light, neutral, 24 h): 98.96%
- ee % ([7]; Avoid light, neutral, 96 h): 98.92%
- ee % ([7]; Under light, basic (KOAc), 6 h): 94.35%
- ee % ([7]; Under light, basic (KOAc), 24 h): 76.17%
- ee % ([7]; Under light, basic (KOAc), 96 h): 30.84%
- ee % ([7]; Under light, neutral, 6 h): 98.87%
- ee % ([7]; Under light, neutral, 24 h): 97.15%
- ee % ([7]; Under light, neutral, 96 h): 81.68%
- ee % of product after stirring for 96 h ([7]; base system, avoid-light condition): 43.30%
- ee % of product after stirring for 96 h ([7]; base system, under-light condition): 30.84%
- ee % of product after stirring for 96 h ([7]; neutral system, avoid-light condition): almost unchanged
- ee % of product after stirring for 96 h ([7]; neutral system, under-light condition): 81.68%
- Purity [8, 11]: 99.53%
- ee % [8, 11]: 98.33%
- stability in solution ([8]; 10˜20° C. within 68 h): stable
- ee % ([8]; 40-50° C. MeOH, pH 4, stir for 4 h): 98.38%
- Purity ([8]; 40-50° C. MeOH, pH 4, stir for 68 h): 99.29%
